Results from publication PMC5467912, “Asymmetric regulation of quorum-sensing receptors drives autoinducer-specific gene expression programs in Vibrio cholerae” (PLoS Genetics, 2017).
“And” between values parts separate entries of the source, which are not always exact repeats. Equal entries are not always repeated. Where two headings read alike, the source gives them in different places.

How the values were obtained:
[1] = tested on: QS-controlled luxCDABE operon; type: cell-based; conditions: for Light production: LuxS-CqsA- +CAI-1 5 μM; for RLU: Strain AH371
CqsS = type: cell-based; conditions: for CqsS Dimers: LuxS-CqsA-, AI-2 1 μM, CAI-1 5 μM, single replicates
hapA = type: cell-based; conditions: ΔcqsA ΔluxS strain, HCD
qrr4 = type: cell-based
CqsS D618N = tested on: T1, CqsS D618N; test: CqsS D618N autophosphorylation in inverted membrane vesicles, 32P (Fig 7A); type: biochemical, Vibrio cholerae
T1 construct: made in house; host or cells: E. coli C43 (DE3), pET21b; used as inverted membrane vesicles

WT CqsS = tested on: T2, WT CqsS; type: cell-based; conditions: Treatment 1uM
T2 construct: made in house; host or cells: E. coli C43 (DE3), pET21b; used as inverted membrane vesicles

CqsS F162A [2] = test: CqsS-dependent repression of qrr4-gfp, CqsS F162A (Fig 7C); type: cell-based, Vibrio cholerae; conditions: Treatment 1uM; CqsS mutant F162A
CqsS C170Y [3] = test: CqsS-dependent repression of qrr4-gfp, CqsS C170Y (Fig 7C); type: cell-based, Vibrio cholerae; conditions: Treatment 1uM; CqsS mutant C170Y
[4] = tested on: QS-controlled luxCDABE operon; type: cell-based; conditions: for RLU: PluxPQ-CqsS::3XFLAG LuxS-CqsA-
CqsS F162A [5] = conditions: cited from earlier work
CqsS C170Y [6] = conditions: cited from earlier work

Compound: CCCCCCCCCC(=O)[C@@H](O)CC [CAI-1, (S)-3-hydroxytridecan-4-one]
- Light production ([1]; OD600 0.0198): 6464646 RLU
- Light production ([1]; OD600 0.0375): 5626666 RLU
- Light production ([1]; OD600 0.256): 957031 RLU
- Light production ([1]; OD600 0.663): 472096 RLU
- Light production ([1]; OD600 0.982): 378819 RLU
- Light production ([1]; OD600 1.101): 133515000 RLU
- RLU ([1]; agonist 0.0476837 nM): 5.19E+03 RLU and 2.61E+03 RLU
- RLU ([1]; agonist 0.762939 nM): 2.58E+03 RLU and 5.16E+03 RLU and 2.67E+03 RLU
- RLU ([1]; agonist 3.05176 nM): 5.00E+03 RLU and 2.56E+03 RLU and 2.61E+03 RLU
- RLU ([1]; agonist 48.8281 nM): 1.58E+04 RLU and 1.61E+04 RLU and 1.60E+04 RLU
- RLU ([1]; agonist 195.312 nM): 2.98E+05 RLU and 2.86E+05 RLU and 2.15E+05 RLU
- RLU ([1]; agonist 781.25 nM): 3.60E+06 RLU and 4.20E+06 RLU and 3.87E+06 RLU
- RLU ([1]; agonist 3125 nM): 1.30E+07 RLU and 1.41E+07 RLU and 1.40E+07 RLU
- RLU ([1]; agonist 12500 nM): 1.88E+07 RLU and 2.11E+07 RLU and 2.10E+07 RLU
- RLU ([1]; agonist 50000 nM): 1.88E+07 RLU and 1.96E+07 RLU and 1.89E+07 RLU
- increase in light production ([1]; saturating autoinducer, HCD, vs untreated ΔcqsA ΔluxS): 100,000 fold
- CqsS Dimers (CqsS; HCD (OD600 = 2.0)): 114.596 and 64.6161 and 71.1979 and 202.196 and 256.645 and 84.2562 and 79.0603 and 97.3422
- CqsS Dimers (CqsS; LCD (OD600 = 0.2)): 74.4347 and 10.9291 and 11.9686 and 59.9755 and 52.7962 and 18.8946 and 26.4401 and 52.893
- CqsS protein levels (CqsS; ΔcqsA ΔluxS mutant, LCD and HCD): increased CqsS protein levels to nearly that present in the WT
- increase in hapA expression (hapA): over 50 fold
- RLU, average per biological replicate (Totals) (qrr4; LuxS-CqsA- strain + autoinducer, Rep 1-3): 2.55E+08 RLU and 2.82E+08 RLU and 3.63E+08 RLU
- reduction of qrr4-luxCDABE expression (qrr4; saturating autoinducer, ΔcqsA ΔluxS mutant): 20 fold
- % Total Phosphorylation (CqsS D618N; agonist 0.32 uM): 95.2512% and 79.8407% and 88.8244% and 85.3997% and 90.9887%
- % Total Phosphorylation (CqsS D618N; agonist 0.64 uM): 113.145% and 87.5268% and 103.834% and 64.446% and 85.0733% and 67.8245%
- % Total Phosphorylation (CqsS D618N; agonist 1.28 uM): 54.1919% and 72.6606% and 66.4662% and 63.8968% and 70.5235% and 55.5883%
- % Total Phosphorylation (CqsS D618N; agonist 6.4 uM): 11.8696% and 10.1556% and 13.3867% and 14.118% and 13.0644% and 14.5467%
- % Total Phosphorylation (CqsS D618N; agonist 8 uM): 8.344% and 11.4086% and 9.0715% and 10.6327% and 12.5012% and 11.7307%
- % Total Phosphorylation (CqsS D618N; agonist 10 uM): 12.437% and 6.165% and 12.0698% and 9.199% and 10.7397% and 9.533%
- % Total Phosphorylation (CqsS D618N; agonist 15 uM): 6.329% and 4.395% and 5.101% and 4.035% and 5.504% and 5.125%
- Qrr4-GFP/OD600 (WT CqsS): 1736969 and 1605333 and 1622571
- Qrr4-GFP/OD600 (CqsS F162A [2]): 18299880 and 17516110 and 17110990
- Qrr4-GFP/OD600 (CqsS C170Y [3]): 23520280 and 22034610 and 28130220
- RLU ([4]; OD600 0.0561): 7.33E+06 RLU
- RLU ([4]; OD600 0.3257): 8.15E+05 RLU
- RLU ([4]; OD600 1.037): 1.96E+05 RLU
- RLU ([4]; OD600 1.243): 3.52E+06 RLU
- RLU ([4]; OD600 1.958): 2.58E+09 RLU
- RLU ([4]; OD600 2.673): 3.36E+09 RLU
- QS response when cqsS is under the luxPQ promoter ([4]; S9B Fig): incapable of inducing the premature response
- response of CqsS variant to CAI-1 (CqsS F162A [5]): do not respond
- response of CqsS variant to CAI-1 (CqsS C170Y [6]): do not respond
